Columns and labels:
Format in all cases: in vivo
[1] = test system: Alopecurus myosuroides (ALOMY); assay: Pre-emergence herbicidal activity, glasshouse pot test; conditions: rate 250 g/ha, evaluated after 13 days, 100=total damage to plant, 0=no damage to plant; for pest or weed control at 250 g/ha: Alopecurus myosuroides, 312 h
Protocol: (§1) Seeds of a variety of test species were sown in standard soil in pots. After cultivation for one day (pre-emergence) or after 8 days cultivation (post-emergence) under controlled conditions in a glasshouse (at 24/16° C., day/night; 14 hours light; 65% humidity), the plants were sprayed with an aqueous spray solution derived from the formulation of the technical active ingredient in acetone/water (50:50) solution containing 0.5% Tween 20 (polyoxyethelyene sorbitan monolaurate, CAS RN 9005-64-5). The test plants were then grown in a glasshouse under controlled conditions in a glasshouse (at 24/16° C., day/night; 14 hours light; 65% humidity) and watered twice daily. After 13 days for pre and post-emergence, the test was evaluated (100=total damage to plant; 0=no damage to plant). Test Plants: Lolium perenne (LOLPE), Alopecurus myosuroides (ALOMY), Echinochloa crus-galli (ECHCG), and Avena fatua (AVEFA). Pre-Emergence Activity

Avena fatua (AVEFA) [2] = assay: as above; conditions: rate 250 g/ha, evaluated after 13 days, 100=total damage to plant, 0=no damage to plant; for pest or weed control at 250 g/ha: Avena fatua, 312 h
Protocol: as §1

[3] = test system: Echinochloa crus-galli (ECHCG); assay: as above; conditions: rate 250 g/ha, evaluated after 13 days, 100=total damage to plant, 0=no damage to plant; for pest or weed control at 250 g/ha: Echinochloa crus-galli, 312 h
Protocol: as §1

Lolium perenne (LOLPE) [4] = assay: as above; conditions: rate 250 g/ha, evaluated after 13 days, 100=total damage to plant, 0=no damage to plant; for pest or weed control at 250 g/ha: Lolium perenne, 312 h
Protocol: as §1

[5] = test system: Alopecurus myosuroides (ALOMY); assay: Post-emergence herbicidal activity, glasshouse pot test; conditions: rate 250 g/ha, evaluated after 13 days, 100=total damage to plant, 0=no damage to plant; for pest or weed control at 250 g/ha: Alopecurus myosuroides, 312 h
Protocol: as §1, with “Post-Emergence” for “Pre-Emergence”

Avena fatua (AVEFA) [6] = assay: as above; conditions: rate 250 g/ha, evaluated after 13 days, 100=total damage to plant, 0=no damage to plant; for pest or weed control at 250 g/ha: Avena fatua, 312 h
Protocol: as §1, with “Post-Emergence” for “Pre-Emergence”

[7] = test system: Echinochloa crus-galli (ECHCG); assay: as above; conditions: rate 250 g/ha, evaluated after 13 days, 100=total damage to plant, 0=no damage to plant; for pest or weed control at 250 g/ha: Echinochloa crus-galli, 312 h
Protocol: as §1, with “Post-Emergence” for “Pre-Emergence”

Lolium perenne (LOLPE) [8] = assay: as above; conditions: rate 250 g/ha, evaluated after 13 days, 100=total damage to plant, 0=no damage to plant; for pest or weed control at 250 g/ha: Lolium perenne, 312 h
Protocol: as §1, with “Post-Emergence” for “Pre-Emergence”

SMILES | pest or weed control at 250 g/ha [1] | pest or weed control at 250 g/ha (Avena fatua (AVEFA) [2]) | pest or weed control at 250 g/ha [3] | pest or weed control at 250 g/ha (Lolium perenne (LOLPE) [4]) | pest or weed control at 250 g/ha [5] | pest or weed control at 250 g/ha (Avena fatua (AVEFA) [6]) | pest or weed control at 250 g/ha [7] | pest or weed control at 250 g/ha (Lolium perenne (LOLPE) [8]) | damage to plant AVEFA (Avena fatua (AVEFA) [2]) | damage to plant ALOMY [5] | damage to plant LOLPE (Lolium perenne (LOLPE) [8]) | damage to plant ALOMY [1] | damage to plant ECHCG [3] | damage to plant LOLPE (Lolium perenne (LOLPE) [4]) | damage to plant AVEFA (Avena fatua (AVEFA) [6]) | damage to plant ECHCG [7]
Cc1cc(Oc2ncc(Cl)cc2Cl)cc(C)c1C1=C(O)[C@H]2[C@@H](C1=O)[C@@H]1CC[C@H]2O1 [Compound A-26] | 90% | 60% | 100% | 100% | 100% | 70% | 90% | 100% | – | – | – | – | – | – | – | –
Cc1cc(Oc2ccc(C(F)(F)F)cn2)cc(C)c1C1=C(O)[C@H]2[C@H]3CC[C@H](C3)[C@H]2C1=O [Compound A-17, meso-(3aS,4S,7R,7aR)-2-[2,6-dimethyl-4-(5-trifluoromethylpyridin-2-yloxy)phenyl]-hexahydro-4,7-methanoindene-1,3-dione] | 0% | 0% | 30% | 0% | 10% | 10% | 40% | 10% | – | – | – | – | – | – | – | –
Cc1cc(Oc2ccc(Br)cc2Cl)cc(C)c1C1=C(O)[C@H]2[C@@H](C1=O)[C@@H]1CC[C@H]2O1 [Compound A-12] | 40% | 10% | 60% | 70% | 80% | 70% | 100% | 70% | – | – | – | – | – | – | – | –
Cc1cc(Oc2ccc(C(F)(F)F)cn2)cc(C)c1C1=C(O)C2C(C1=O)[C@H]1CC[C@@H]2CC1 (stereo partly drawn) [Compound A-19] | 0% | 0% | 10% | 0% | 10% | 10% | 60% | 0% | – | – | – | – | – | – | – | –
Cc1cc(Oc2cnc3cc(Cl)ccc3n2)cc(C)c1C1=C(O)[C@H]2[C@@H](C1=O)[C@@H]1CC[C@H]2O1 [Compound A-22] | 50% | – | 90% | 80% | – | 100% | 90% | – | 50 | 100 | 100 | – | – | – | – | –
CCc1cc(Oc2ccc(Br)cc2F)ccc1C1=C(O)[C@H]2[C@@H](C1=O)[C@@H]1CC[C@H]2O1 [Compound A-1] | 20% | 0% | 30% | 20% | 70% | 80% | 100% | 70% | – | – | – | – | – | – | – | –
Cc1cc(Oc2ccc(Cl)cc2)cc(C)c1C1=C(OC(=O)C(C)(C)C)[C@H]2[C@@H](C1=O)[C@@H]1CC[C@H]2O1 [Compound P-3] | 100% | 90% | 100% | 90% | 90% | 100% | 100% | 100% | – | – | – | – | – | – | – | –
Cc1cc(Oc2cccc(F)c2F)cc(C)c1C1=C(O)[C@H]2[C@@H](C1=O)[C@@H]1CC[C@H]2O1 [Compound A-8] | 40% | 0% | 40% | 30% | 80% | 40% | 90% | 80% | – | – | – | – | – | – | – | –
CCc1cc(Oc2ccc3cc(Cl)ccc3n2)ccc1C1=C(O)[C@H]2[C@@H](C1=O)[C@@H]1CC[C@H]2O1 [Compound A-38] | 80% | 0% | 100% | 70% | 90% | 80% | 100% | 80% | – | – | – | – | – | – | – | –
Cc1cc(Oc2cc(F)ccc2F)cc(C)c1C1=C(O)[C@H]2[C@@H](C1=O)[C@@H]1CC[C@H]2O1 [Compound A-9] | 20% | 0% | 50% | 60% | 60% | 40% | 90% | 60% | – | – | – | – | – | – | – | –
Cc1cc(Oc2ncc(Cl)cc2F)cc(C)c1C1=C(O)[C@H]2[C@@H](C1=O)[C@@H]1CC[C@H]2O1 [Compound A-24] | – | – | 70% | 80% | 80% | 80% | 90% | 90% | 60 | – | – | 100 | – | – | – | –
Cc1cc(Oc2ccc3cc(Cl)ccc3n2)cc(C)c1C1=C(O)CC(CC2CCOCC2)C1=O (stereo not drawn) [Compound A-37, 2-[4-(6-chloroquinolin-2-yloxy)-2,6-dimethylphenyl]-4-(tetrahydropyran-4-ylmethyl)cyclopentane-1,3-dione] | 10% | 10% | 90% | 0% | 50% | 60% | 80% | 40% | – | – | – | – | – | – | – | –
Cc1cc(Oc2cnc3cc(Cl)ccc3n2)cc(C)c1C1=C(O)[C@H]2[C@@H](C1=O)[C@@H]1CC[C@H]2O1 [Compound A-23] | – | – | – | – | – | – | – | – | 20 | 60 | 50 | 30 | 90 | 90 | 80 | 70
Cc1cc(Oc2ccccc2Cl)cc(C)c1C1=C(O)[C@H]2[C@@H](C1=O)[C@@H]1CC[C@H]2O1 [Compound A-10] | 10% | 0% | 10% | 20% | 10% | 0% | 40% | 30% | – | – | – | – | – | – | – | –
Cc1cc(Oc2ccc(F)cc2)cc(C)c1C1=C(OC(=O)C(C)(C)C)[C@H]2[C@@H](C1=O)[C@@H]1CC[C@H]2O1 [Compound P-4] | 80% | 70% | 100% | 90% | 90% | 60% | 90% | 70% | – | – | – | – | – | – | – | –

From patent publication US8680339B2, “Herbicides” (Syngenta Limited, priority 2009, dated 2014)
